For 3 compounds, Kd, EC50 and IC50 results are on record in patent US11242351B2, “Tricyclic inhibitors of the BCL6 BTB domain protein-protein interaction and uses thereof” (priority 2017, dated 2022).

As usually defined, the pKd is the Kd on a negative log10 scale, so that one unit is a factor of ten. Lower therefore signals a large Kd. The pEC50 is −log10 of the EC50, conventionally taken in molar units. A word on the pIC50: it is the negative decadic logarithm of the IC50, by convention in mol/L.

Experiment [1] has as its target BCL6 BTB domain (biotin-thrombin-BCL6 amino acids 1-129) (Homo sapiens (Human), UniProt P41182). As to the kind of experiment: Surface Plasmon Resonance (SPR) assay. The experiment is classed as binding. The following applies: Biacore T200, single cycle kinetic analysis. The procedure:
Surface Plasmon Resonance (SPR) Assay
SPR studies were performed using a Biacore™ T200 instrument (GE Health Sciences Inc.). […] The Biacore flow rate was set at 100 μl/min. […] Curve fitting and KD calculations were performed with the Biacore T200 Evaluation software (GE Health Sciences Inc).
On the technique in general: In SPR one partner is held on a chip, and binding of the other changes the refractive index at the surface.

Another experiment has as its system Karpas422 cells. Nature of the experiment: Tumor cell growth inhibition assay. The experiment is classed as cell-based. The following applies: Homo sapiens, KARPAS-422, 144 h, read-out: GI Karpas EC50. In a few lines: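 Karpas422 cells were dosed over a 10-point concentration range (top 5 μM) and grown 6 days at 37 °C, 5% CO2, in Alpha-MEM with 10% FBS. Viability was read as ATPlite luminescence.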

The test system of experiment [2] is BCL6 reporter construct in SuDHL4-3×BCL6-TK-Luc cells. As to the kind of experiment: Cell-based luciferase assay (BCL6 reporter). The following applies: 48 h, read-out: Luc IC50. In a few lines:
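SuDHL4 cells stably carrying a 3×BCL6-site TK-promoter firefly luciferase reporter, 15,000 cells/well, dosed over 10 concentrations (top 10 μM) and cultured two days at 37° C, 5% CO2. Luciferase luminescence read after room-temperature equilibration with neolite reagent.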

Where [3] appears, read: Karpas422 cells, six days, ATPlite.
Where [4] appears, read: SuDHL4-3×BCL6-TK-Luc cells, two days.

pEC50, pIC50, pKd: −log10 of the molar value. Read-outs that look alike come from different tables or passages of the source.

In turn, `CC1Cc2nc3c(c(-c4cc(Cl)c(O)c(C(N)=O)c4)cn3CC(=O)Nc3cc(N4CCN(C)C[C@@H]4C)nc(F)c3Cl)c(=O)n2C1` (stereo partly drawn) [I-65, 3-chloro-5-(1-(2-((3-chloro-6-((S)-2,4-dimethylpiperazin-1-yl)-2-fluoropyridin-4-yl)amino)-2-oxo-ethyl)-7-methyl-4-oxo-4,6,7,8-tetra-hydro-1H-dipyrrolo [1,2-a:2′,3′-d]pyrimi-din-3-yl)-2-hydroxy-benzamide] gave a negative logarithm of the Kd (pKd) in experiment [1] of 8.20. In addition, the pEC50 with Karpas422 cells (setting [3]) was 7.38. The pIC50 in experiment [2] (setting [4]) was 7.33.

`CN1CCN(c2cc(NC(=O)Cn3cc(-c4cc(C(N)=O)c(O)c(F)c4F)c4c(=O)n5c(nc43)CCC5)c(Cl)cn2)CC1` [I-36, 5-(1-(2-((5-chloro-2-(4-methylpiperazin-1-yl)pyridin-4-yl)amino)-2-oxoethyl)-4-oxo-4,6,7,8-tetrahydro-1H-dipyrrolo[1,2-a:2′,3′-d]pyrimidin-3-yl)-3,4-difluoro-2-hydroxy-benzamide] had a negative-log Kd (pKd) in experiment [1] of 7.63. In addition, in the experiment with Karpas422 cells, the pEC50 is 6.32. For the same compound, the pIC50 in experiment [2] is 6.15.

For the compound `COc1c(O)c(C(N)=O)cc(-c2cn(CC(=O)Nc3cc(N4CCN(C5COC5)C[C@@H]4C)ncc3Cl)c3nc4n(c(=O)c23)CCC4)c1F` [I-19, (S)-5-(1-(2-((5-chloro-2-(2-methyl-4-(oxetan-3-yl)piperazin-1-yl)pyridin-4-yl)amino)-2-oxoethyl)-4-oxo-4,6,7,8-tetrahydro-1H-dipyrrolo[1,2-a:2′,3′-d]pyrimidin-3-yl)-4-fluoro-2-hydroxy-3-methoxybenzamide], the pKd in experiment [1] is 7.58. Also, the pEC50 with Karpas422 cells (setting [3]) is 6.29. In addition, the pIC50 in experiment [2] (setting [4]) is 6.30.
